These results are taken from patent US20240228562A1, “NOVEL LIPOCALIN MUTEINS SPECIFIC FOR CONNECTIVE TISSUE GROWTH FACTOR (CTGF)” (PIERIS PHARMACEUTICALS GMBH, priority 2021, published 2024).

Data set [1] has as its system CCL-206 lung fibroblasts co-cultured with primary murine Epcam-positive epithelial progenitor cells. As to the kind of experiment: Lung organoid formation model. Format: cell-based. Conditions: 14 days treatment; nintedanib 100 nM; SEQ ID NO: 74 at 100 nM. The procedure:
The effect of CTGF-targeting lipocalin muteins was analyzed using an organoid model for lung regeneration. In this model, CCL-206 lung fibroblasts are co-cultured with freshly isolated primary murine Epcam-positive epithelial progenitor cells, and the number of formed organoids is analyzed after 14 days. TGF-b1 pre-treatment of CCL-206 fibroblasts leads to an impaired organoid formation and resembles an impairment of lung regeneration as for example observed in lung disease, such as IPF. The impaired formation of organoids can be rescued by treatment with different drugs, such as nintedanib, which is used as a positive control in this model. […] Analysis of organoid numbers confirmed the impairment of organoid formation by TGF-b1 stimulation.

The test system of data set [2] is idiopathic pulmonary fibrosis (IPF). Conditions: cited from earlier work; for Decline in lung function in IPF: FDA-approved drugs for IPF; for Tolerability in IPF patients: gastrointestinal and other drug-related tolerability issues.
Data set [3] relates to human melanoma cell lines. Conditions: cited from earlier work.

For `COC(=O)c1ccc2c(c1)NC(=O)/C2=C(\Nc1ccc(N(C)C(=O)CN2CCN(C)CC2)cc1)c1ccccc1` [nintedanib], the “Effect on TGF-b1 impaired organoid formation” value in data set [1] is given as “partially rescued”. Besides, in data set [2], the “Decline in lung function in IPF” value is listed as “slowing down the decline in lung function” and the “Tolerability in IPF patients” value is listed as “not well-tolerated”.
`Cc1ccc(=O)n(-c2ccccc2)c1` [pirfenidone]: in data set [2], the “Decline in lung function in IPF” value is “slowing down the decline in lung function” and the “Tolerability in IPF patients” value is reported as “not well-tolerated”.
In the case of “FG-3019/pamrevlumab: anti-CTGF monoclonal antibody in clinical trials”, in data set [3], the “Migration of human melanoma cell lines” value is listed as “inhibition of the migration”. Besides, in data set [2] (phase 2 clinical trial), the “Disease progression in patients suffering from IPF” value is “attenuated disease progression”.
